One substance from patent US20230117252A1, “CELL SHEET HAVING FIBROSIS INHIBITORY ACTION” (NATIONAL UNIVERSITY CORPORATION TOTTORI UNIVERSITY, priority 2017, published 2023) can be followed below.

One assay deals with MMP-14. Nature of the assay: MMP-14 activity of trypsin-treated cell suspension and cell sheet at different seeding densities (Example 1). The class given is cell-based. As to conditions: for MMP14 average: UE7T-13 cells. An excerpt:
(§1) In the present disclosure, the MMP activity can be determined by measuring the enzyme activity using a fluorescence resonance energy transfer (FRET) peptide that generates fluorescence upon cleavage by MMP.
(§2) Bone marrow-derived mesenchymal stem cells (UE7T-13 cell line) were suspended in DMED/10% FBS and seeded to make respective seeded cell densities of 3.6×10^4 cells/cm^2, 5.4×10^4 cells/cm^2, and 7.2×10^4 cells/cm^2 in temperature-responsive culture dishes and ordinary cell culture dishes. After four days, the temperature-responsive culture dishes were moved into a 32° C., 5% CO2 incubator, and sheets were made. The cell sheets obtained were washed three times with PBS, then homogenized in the buffer of an MMP activity measurement kit (SensoLyte® 520 MMP-1 Assay Kit Fluorimetric, (ANASPEC Co.: Cat #: AS-71150) and SensoLyte® 520 MMP-14 Assay Kit Fluorimetric (ANASPEC Co.: Cat #AS72025)). The cells seeded in the ordinary cell culture dishes were dispersed in 0.025% trypsin/0.1 mM EDTA, recovered by centrifugation, then washed three times with PBS and homogenized in the buffer for the MMP activity measurement. The results in FIG. 1 show the results on MMP-1 (FIG. 1A) and MMP-14 (FIG. 1B) per cell. […] It was a surprising result that the MMP-1 activity per cell was increased by increasing the seeding density.

A further assay concerns MMP-1. Nature of the assay: MMP-1 activity of trypsin-treated cell suspension and cell sheet at different seeding densities (Example 1). As to conditions: for MMP1 average: UE7T-13 cells. It counts as cell-based. Here is the method:
as §1
as §2, with “After” for “Bone marrow-derived mesenchymal stem cells (UE7T-13 cell line) were suspended in DMED/10% FBS and seeded to make respective seeded cell densities of 3.6×10^4 cells/cm^2, 5.4×10^4 cells/cm^2, and 7.2×10^4 cells/cm^2 in temperature-responsive culture dishes and ordinary cell culture dishes. After”

Where [1] appears, read: seeding density 1.8 × 10^4 cells/cm^2, per cell.
Setting [2] is: seeding density 3.6 × 10^4 cells/cm^2, per cell.
Where [3] appears, read: seeding density 5.4 × 10^4 cells/cm^2, per cell.
Where [4] appears, read: seeding density 7.2 × 10^4 cells/cm^2, per cell.

Take Trypsin: in the assay with MMP-14 (FIG. 1B), the “increase of MMP-14 activity when the seeding density was increased four-fold” value is given as “about four-fold”. Moreover, the MMP14 average with MMP-14 (setting [1]) was found to be 156184.1; with MMP-14 (setting [2]) it was 353634.5; in the assay with MMP-14 (setting [3]), 427591.6; in the assay with MMP-14 (setting [4]), 576164. Moreover, the “increase of MMP activity when the seeding density was increased four-fold” value with MMP-1 (Example 1, MMP-1 and MMP-14 together) was “about four-fold”. In addition, the “increase of MMP-1 activity when the seeding density was increased four-fold” value in the assay on MMP-1 (FIG. 1A) is “about four-fold”. For the same substance, the MMP1 average turned out to be 103548.8 in the assay with MMP-1 (setting [1]), 242642.7 in the assay with MMP-1 (setting [2]), 326635.6 in the assay on MMP-1 (setting [3]) and 462976 in the assay on MMP-1 (setting [4]).
